Key:
[1] = system: Swiss albino mice subjected to whole-body γ irradiation; experiment: Survival of mice subjected to whole-body γ irradiation (LD50/30); type: in vivo
Text: Swiss albino mice (male, 9-10 weeks old, 30-32 g) were obtained from Charles River Laboratories (Wilmington, MA). This strain is among the most common used in radiation studies (Williams 2010). Mice were fed with a nutritionally complete diet (standard diet, SD) before irradiation. This was A03 from Panlab (Barcelona, Spain), which has 3,200 kcal/kg and the following nutritional composition: crude protein, 23.5%; crude fat, 4.3%; crude fiber, 3.7%; and carbohydrates, 51.1%; vitamins and minerals were provided as in the NIH-7 open formula for rat and mouse. This diet meets the dietary allowances recommended for adult mice by the American Institute of Nutrition. The animals were fed ad libitum and kept in individual metabolic cages, in which body weight and food ingestion were monitored daily. The animal room was maintained at 22° C. on a 12 h light/12 h dark cycle. Ad libitum intake of drinking water was also allowed. Care of irradiated mice followed the recommendation of the Robert Wood Johnson Medical School (Piscataway, NJ) for mouse total body irradiation (policy 15), which includes: a) use of antibiotics in the drinking water (134 mg ampicillin/kg/day, 40 mg baytril/kg/day, and 220/42 mg sulfamethoxazole/trimethoprim/kg/day), b) making drinking water readily available, c) Napa nectar Systems Engineering Lab Group Inc., Napa, CA) provided on the bottom of the cage during the first 14 days and replaced daily, d) provision of softened food served in a small Petri dish on the cage floor, e) completely sterile environment (cage, food, and water) to avoid potential immunosuppression-associated infections. A free-standing wheel inside the cage was also included to facilitate the physical exercise of the animals. All experiments were started at 10.00 h to minimize possible circadian variations. Procedures involving animals were in compliance with international laws and policies (EEC Directive 86/609, OJ L 358. 1, Dec. 12, 1987; and NIH Guide for the Care and Use of Laboratory Animals, NIH Publ. No. 85-23, 1985). Mice were subjected to g-radiation (^137Cs) (total body irradiation, TBI) in a BIOBEAM 8000 (Gamma-Service Medical GmbH, Leipzig, Germany). Single fraction radiotherapy, at total doses ranging from approx. 5.0 to 10.0 Gy, was administered at a rate of approx. […]. The irradiation distance from the source was limited to 12 cm. Radiation dosimetry was controlled using alanine dosimeters from Bruker (Billerica, MA) with dosimetry variation of +/−0.09 Gy. […] NR (nicotinamide riboside, 3-aminocarbonyl-1-b-D-ribofuranosyl-pyridinium, Elysium Health, Inc., New York, NY) was dissolved in vaccination-grade water, and the pH of the solution neutralized (pH 7.0) before oral administration (185 mg/kg×day, Obrador 2020). FSL-1 (InvivoGen, San Diego, CA) was resuspended in sterile vaccination-grade water, and administered IP (0.25 mg/kg×day, the volume administered was of […] depending on the weight of the mouse, as recommended by Kurkjian 2017). Pharmaceutical grade amifostine (Ethyol) was obtained from Cumberland Pharmaceuticals (Nashville, TN) as 500 mg sterile lyophilized powder vial, and reconstituted with physiological saline prior to use.
First, the effects of γ radiation and mice survival were studied. […] Mice received whole-body γ radiation (one single dose; ^137Cs, 0.5-0.6 Gy/min; Biobeam 8000, GSM GmbH). One Gy=absorption of 1 J of energy/kg of matter.
Next, the thirty-days survival of mice treated with γ rays (LD50/30) and pterostilbene (PT) was analysed (FIG. 1B).

[2] = PT, SIL and NAD+ levels in circulating blood; conditions: treated and irradiated mice, FIG. 10B
Procedure: Briefly, samples were analyzed through HPLC (Ultimate 3000, Thermo Fisher Scientific) and MS/MS (Waters TQ detector triple quadrupole) systems on a Hypurity™ C18 column (50×4.6 mm) using an injection volume of 5 μL. The mobile phases consisted of water (A) and acetonitrile (B). […] MS/MS data acquisition was performed under negative electrospray ionization mode. […] The fragmentary voltage was 150 V, and the collision energy 15 eV. Tissue sample preparation was as described for determination of PTER levels (above).
Whole-blood samples (0.5 ml) were collected in sodium citrate tubes at 4° C. Then a whole-blood aliquot of 0.1 ml was transferred to a cryovial containing 0.9 ml of 0.5 M ice-cold perchloric acid to lyse all blood cells. Samples were centrifuged at 10,000 g×10 min (4° C.). Supernatants were stored at −80° C. until analyzed.

cellular NAD+ content = experiment: NAD+ content of cells isolated from mice; type: in vivo; conditions: FIG. 14a
Procedure: (§1) FIG. 14. […] Cells were isolated 72 h after irradiation. […] Mice were treated and cells isolated as above (a).
Isolated cells were homogenized in 0.1M phosphate buffer (pH 7.2) at 4° C. γ-glu tamylcysteine ligase (GCL), glutathione peroxidase (GPX), catalase (CAT), and superoxide dismutase 1 and 2 (SOD1 and SOD2) activities were measured as previously described in detail (Benlloch 2016). Protein concentration was determined with the Pierce BCA protein assay (Thermo Fisher Scientific). Glutathione ([…]-L-glutamyl-L-cystenyl-glycine, GSH) was determined by LC/MS as previously reported (Obrador 2014). Cell processing was performed according to published methodology, where rapid N-ethylmaleimide derivatization was used to prevent GSH auto-oxidation (Asensi 1994). NAD^+ and NADH in isolated cells were quantitated using assay kits from MyBiosource (San Diego, CA).
Presumably, the effect of the polyphenols is an antioxidant-related mechanism, whereas the NR-induced increase in NAD+ directly promotes the DNA repair activity.

[3] = biological target: nicotinamide phosphoribosyltransferase (NAMPT) (Mus musculus, UniProt Q99KQ4); conditions: mice treated with FK866 for 6 days, FIG. 14b
Procedure: FK866 was administered in vivo (15 mg/kg, twice daily by intraperitoneal injection, during 6 days and starting 3 days prior to irradiation, see FIG. 11a), and was also present in the cell cultures (100 nM). Cells were isolated 72 h after irradiation. […] Mice were treated with the inhibitor for 6 days as above (a).
Formation of 14C-nicotinamide mononucleotide (NMN) from 14C-nicotinamide (NAM, (GE Healthcare Life Sciences, Björkgatan, Uppsala, Sweden) can be measured by precipitation of 14C-NMN in acetone on filter paper and scintillation counting. Cell dispersion was carried out by trypsinization (in Mg^2+- and Ca2^+-free PBS supplemented with 0.2% trypsin, 0.5 mM EDTA, and 5 mM glucose for 3 min at 37° C.). Cell pellets were obtained by centrifugation (800 g×5 min at 4° C.), and then 100 μl of phosphate buffer [0.01 M Na2HPO4/NaH2PO4 buffer, pH 7.4, containing protease inhibitor (Sigma-Aldrich)] was added to each cell sample. Samples were further processed, and NAMPT activity was determined on 30 μg of protein as described previously (Elliott G C, et al. 1980, and Schuster S, et al. 2014). Radioactivity (disintegrations/min) was measured using a Tri-Carb® Liquid Scintillation Counter from Perkin-Elmer. Background disintegrations/min from scintillation fluid was subtracted from each measurement.

[4] = system: hematopoietic colony forming cells CFU-GM and CFU-GEMM; experiment: Colony forming cells in the bone marrow; type: in vivo; conditions: femurs of γ-irradiated mice, 7 days after irradiation, FIG. 14d
Procedure: as §1
Mice were sacrificed under aseptic conditions and femurs were isolated on day 7 post irradiation. Bone marrow cells were flushed from the isolated femurs (see above) with phosphate-buffered saline (4° C.) supplemented with 5% fetal bovine serum. Single-cell suspension was passed through 100 μm nylon mesh strainer to remove debris and clumps. Cells were washed twice with phosphate-buffered saline (4° C.) and counted using a hemocytometer. Cells were plated ex vivo at a concentration of 5×10^4 cells per 35 mm cell culture dish in Methocult GF M3434 (Stemcell Technologies, Vancouver, Canada) growth medium according to the manufacturer's protocol and incubated for 14 days at 37° C., 5% CO2, 95% humidity. Colonies were visualized on day 14 of culture using light microscopy (AxioCam MRc5, Zeiss, Oberkochen, Germany) under a polarised light and scanned in a 60 mm gridded scoring Petri dish (Stemcell Technologies). Hematopoietic colony forming cells CFU-GM and CFU-GEMM were quantified.

cellular DNA damage = experiment: Comet assay of DNA damage in cells isolated from γ-irradiated mice; type: in vivo; conditions: FIG. 14c
Procedure: as §1
This assay is a single cell gel electrophoresis assay for simple evaluation of cellular DNA damage. We used the assay kit from Abcam (ab238544) (Cambridge, UK). The manufacturer's instructions were followed step by step.

[5] = 60 days after γ radiation (LD50/30), compounds administered orally, FIG. 2C
[6] = 6 days after γ radiation (LD50/30), compounds administered orally, FIG. 2A
[7] = 60 days post γ irradiation (LD50/30), NR oral 185 mg/kg×day for 30 days after irradiation, FSL-1 IP 0.25 mg/kg once 24 h after, FIG. 9

Sequence of nicotinamide phosphoribosyltransferase (NAMPT) (Q99KQ4 whole entry): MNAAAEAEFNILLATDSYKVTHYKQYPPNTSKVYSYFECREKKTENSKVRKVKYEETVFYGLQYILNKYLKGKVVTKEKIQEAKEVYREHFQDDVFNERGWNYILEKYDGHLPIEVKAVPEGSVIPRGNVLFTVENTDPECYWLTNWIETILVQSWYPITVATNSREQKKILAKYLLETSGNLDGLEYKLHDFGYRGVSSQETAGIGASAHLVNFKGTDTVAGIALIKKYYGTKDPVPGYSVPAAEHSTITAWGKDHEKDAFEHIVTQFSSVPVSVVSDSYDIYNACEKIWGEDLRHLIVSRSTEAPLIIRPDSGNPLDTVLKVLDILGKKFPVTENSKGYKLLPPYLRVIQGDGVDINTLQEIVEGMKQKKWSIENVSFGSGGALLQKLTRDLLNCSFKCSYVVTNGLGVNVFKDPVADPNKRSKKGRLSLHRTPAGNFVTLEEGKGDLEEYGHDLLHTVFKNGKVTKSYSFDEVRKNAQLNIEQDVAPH

Compound `O=C1C[C@@H](c2ccc(O)cc2)Oc2cc(O)cc(O)c21` [Naringerin, naringenin] has a survival [1, 5] of 0%.

In the case of `O=C(O)c1cc(O)c(O)c(O)c1` [Gallic acid, gallic acid], the survival [1, 6] is reported as “around 100%” and the survival [1, 5] is reported as “around 5%”.

In the case of `O=c1cc(-c2ccc(O)c(O)c2)oc2cc(O)cc(O)c12` [Luteolin, luteolin], the survival [1, 5] is reported as 0% and the “percentage of survival reduced in” value ([1]; after 30 days, γ radiation (LD50/30), oral, FIG. 2B) is reported as “about 40%”.

For `Oc1cc(O)c2cc(O)c(-c3cc(O)c(O)c(O)c3)[o+]c2c1` [Delphinidin], the survival [1, 5] was “around 12%”.

In the case of `O=C(CCc1ccc(O)cc1)c1c(O)cc(O)cc1O[C@@H]1O[C@H](CO)[C@@H](O)[C@H](O)[C@H]1O` [Phloridzin, phloridzin], the survival [1, 5] is reported as 0%.

In the case of `COc1cc([C@@H]2Oc3cc(C4Oc5cc(O)cc(O)c5C(=O)[C@H]4O)ccc3O[C@H]2CO)ccc1O` (stereo in doubt) [SIL, 3,5,7-trihydroxy-2-[3-(4-hydroxy-3-methoxyphenyl)-2-(hydroxymethyl)-2,3-dihydro-1,4-benzodioxin-6-yl]-2,3-dihydrochromen-4-one], the survival [1, 5] is reported as “around 10%” and the “SIL levels in circulating blood, 30 min vs 120 min” value [2] is reported as “higher 30 min after”.

For `O=C(/C=C/c1cccnc1)NCCCCC1CCN(C(=O)c2ccccc2)CC1` [FK866, reference compound], the “NAD+ levels in mice treated with PT+SIL+NR or PT+SIL+NR+γ rays” value (cellular NAD+ content; FK866 15 mg/kg twice daily IP 6 days and 100 nM in cell cultures) was “decreased” and the NAMPT activity [3] was “drastic decrease”.

For `Oc1ccc(C=Cc2cc(O)cc(O)c2)cc1` [Resv, resveratrol], the “radioprotective effects compared with PT” value ([1]; orally once per day, 5 days before and 2 days after γ irradiation (7.2 Gy), FIG. 1C) was “lower than those of PT”.

In the case of `O=c1c(-c2ccc(O)cc2)coc2cc(O)cc(O)c12` [Genistein, genistein], the survival [1, 5] is reported as “around 7%”.

With `O=C(O[C@@H]1Cc2c(O)cc(O)cc2O[C@@H]1c1cc(O)c(O)c(O)c1)c1cc(O)c(O)c(O)c1` [EGCG, epigallocatechin gallate] the survival [1, 6] was “around 100%” and the survival [1, 5] was 0%.

In the case of FSL-1, the survival [1, 7] is reported as 5%, the “hematopoietic colony forming cells CFU-GEMM” value [4] is reported as “increases” and the “hematopoietic colony forming cells CFU-GM” value [4] is reported as “increases”.

For `NC(=O)c1ccc[n+]([C@@H]2O[C@H](CO)[C@@H](O)[C@H]2O)c1` [NR, 3-aminocarbonyl-1-b-D-ribofuranosyl-pyridinium], the survival [1, 7] was 0%, the “decrease of NAD+ induced by γ radiation” value (cellular NAD+ content; cells isolated 72 h after irradiation) was “prevents” and the “NAD+ content in different cell types” value (cellular NAD+ content; cells isolated from treated mice) was “increases”. For the same compound, the “DNA recovery (DNA damage COMET assay)” value (cellular DNA damage) was “favored DNA recovery”.

Compound `O=c1c(O)c(-c2ccc(O)c(O)c2)oc2cc(O)cc(O)c12` [Quercetin, quercetin] has a survival [1, 5] of 0%.

— patent publication US20250275940A1, “PTEROSTILBENE AND SILIBININ FOR PREVENTING, AMELIORATING OR REDUCING RADIATION-INDUCED DISEASES” (UNIVERSITAT DE VALÈNCIA, priority 2021, published 2025)
